The source of these data is US8481042B2, “Conjugates of pyrrolo[1,4]benzodiazepine dimers as anticancer agents” (priority 2009, dated 2013).

Holding throughout (assay type): cell-based
One test concerns MDA-MB-231 cells. Briefly: Inhibition of the proliferation of MDA-MB-231 cells by compounds of formula IA (14C-thymidine pulse at 96 h). Conditions: Homo sapiens; MDA-MB-231, 3 days culture, 14C-thymidine incorporation at 96 h; read-out: Inhibition of the proliferation (14C-thymidine pulse at 96 h) IC50 MDA-MB231. The procedure:
(§1) Evaluation of the Inhibition of the Proliferation of the MDA-MB-231, MDA-A1 and HCT116 Cell Lines by the Compounds of Formula IA with ZbRb=−OMe and Y═Y′=−OMe
(§2) The MDA-MB-231, MDA-A1 or HCT116 cells in their exponential growth phase are trypsinized and resuspended in their respective culture medium (DMEM/F12 Gibco #21331, 10% FCS Gibco #10500-056, […] Gibco #25030 for the MDA cells; DMEM Gibco #11960, 10% FCS Gibco #10500-056, 2 mM glutamine Gibco #25030 for the HCT116 cells). The cell suspension is seeded in Cytostar 96-well culture plates (GE Healthcare Europe, #RPNQ0163) in the complete culture medium containing serum at a density of 5000 cells/well (MDA-MB-231, MDA-A1, HCT116). After incubation for 4 hours, successive dilutions of the tomaymycin dimers are added to the wells in triplicate for each concentration. The cells are cultured for 3 days at 37° C. under an atmosphere containing 5% CO2 in the presence of the cytotoxic agents. On the 4th day, 10 μl of a ^14C-thymidine solution (0.1 μCi/well, Perkin Elmer #NEC56825000) are added to each well. The incorporation of ^14C-thymidine is measured 96 hours after the start of the experiment using a MicroBeta radioactivity counter (Perkin Elmer). The data are expressed in the form of a % of survival by determining the ratio between the count obtained with the cells treated with the cytotoxic agent and the count obtained with the cells of the control wells (treated with the culture medium alone).
For orientation: Uptake of a labelled nucleoside into DNA is a usual measure of proliferation.

The subject of the next test is MDA-A1 cells. Briefly: Inhibition of the proliferation of MDA-A1 cells by compounds of formula IA (14C-thymidine pulse at 96 h). Conditions: MDA-A1, 3 days culture, 14C-thymidine incorporation at 96 h. The procedure:
as §1, §2

The subject of the next test is HCT116 cells. Briefly: Inhibition of the proliferation of HCT116 cells by compounds of formula IA (14C-thymidine pulse at 96 h). The following applies: Homo sapiens, HCT-116; HCT116, 3 days culture, 14C-thymidine incorporation at 96 h. How it is done:
as §1, §2

For the compound `C/C=C1\C[C@H]2C=Nc3cc(OCc4cc(OCCN(C)CC(C)(C)SCC(=O)NCCOCCOCCOCCOCCC(=O)OC)cc(COc5cc6c(cc5OC)C(=O)N5C/C(=C/C)C[C@H]5C=N6)n4)c(OC)cc3C(=O)N2C1`, the IC50 is 0.009 nM in the test with MDA-MB-231 cells, 1.99 nM with MDA-A1 cells and 0.03 nM in the test on HCT116 cells.
As for `C/C=C1\C[C@H]2C=Nc3cc(OCc4cc(OCCN(C)CC(C)(C)SCC(=O)N(C)CCOCCOCCOCCOCCC(=O)OC)cc(COc5cc6c(cc5OC)C(=O)N5C/C(=C/C)C[C@H]5C=N6)n4)c(OC)cc3C(=O)N2C1`, the IC50 was 0.07 nM in the test with MDA-MB-231 cells, 2.26 nM in the test on MDA-A1 cells and 0.12 nM in the test with HCT116 cells.
For `C/C=C1\C[C@H]2C=Nc3cc(OCc4cc(COc5cc6c(cc5OC)C(=O)N5C/C(=C/C)C[C@H]5C=N6)cc(C(C)(C)SCC(=O)NCCOCCOCCOCCOCCC(=O)OC)c4)c(OC)cc3C(=O)N2C1` the same measures were 0.084 nM, greater than 10 nM and 0.127 nM.
On the same counts, the results for `C/C=C1\C[C@H]2C=Nc3cc(OCc4cc(OCCN5CCN(C(=O)CCC(C)(C)SCC(=O)NCCOCCOCCOCCOC(=O)OC)CC5)cc(COc5cc6c(cc5OC)C(=O)N5C/C(=C/C)C[C@H]5C=N6)n4)c(OC)cc3C(=O)N2C1` are 0.45 nM, greater than 10 nM and 1.25 nM.
